{"source": "paper PMC12512694", "about": "“PbrNAC34a- PbrMYB3/65- PbrACO2 cascade plays a role in citrate difference between the pericarp and cortex tissues of pear (P. bretschneideri Rehd.) fruit” (Molecular Horticulture, 2025)", "system": "PbrACO2", "conditions": "citrate to isocitrate conversion; recombinant His-PbrACO2", "data": [{"smiles": "O=C(O)CC(O)(CC(=O)O)C(=O)O", "note": "[citrate]", "values": [{"measurement": "Km", "result": 630, "unit": "µM"}]}]}
